Consider three molecules from patent US20230355773A1, “[…] DRUG CONJUGATES” (P.I.F. Entrepreneurs Ltd., priority 2020, published 2023).

SMILES strings stand for the structures. Like-named read-outs stand apart in the source and are kept apart here.

A word on the half-life: it is the time in which the quantity being followed falls by half. Broadly, the Tmax is the time at which the peak concentration occurs. Usually clearance stands for the rate of elimination divided by the concentration. Read a low clearance as inefficient removal. What is called Vd is a proportionality between amount in the body and measured concentration, not a real space.

Data set [1] concerns cytokines levels after LPS induction. Particulars: 100 µg per mouse s.c.
Data set [2] relates to neuroinflammatory response induced by LPS. Particulars: I5 100 µg per mouse s.c. On the procedure: 120 mice (female C57BL/6) mice approximately 6 weeks old were assigned into groups based on body weight, creating homogenous groups, and acclimated to facility conditions over 5 days.
A neuroinflammatory response was induced in all mice by intraperitoneal administration of 5 mg/kg of LPS. […] Group 2: dexamethasone at […]. Group 3: Vehicle. Test items were administered at the following time points: 30 minutes before LPS injection, 2 hours post-LPS injection and 10 hours post LPS injection (where applicable). 10 animals from each group were sacrificed at the following time points: 4, 8, 24 and 48 hours post LPS administration. Brains were collected and preserved in buffered 4% formaldehyde. Bronchoalveolar lavage fluid was extract from lungs of all animals.

For data set [3], the system named is activated macrophages (THP1 monocytes transformed with PMA, infected with Leishmania donovani). Particulars: for activated macrophage survival: 0.1, 1 and 10 µg/ml, 12-14 hours of incubation, FIG. 1. The method, then: A macrophage killing assay was performed in order to determine potential of conjugates described herein for treatment of macrophage-related diseases. THP1 monocytes were transformed into macrophages for using phorbol myristate acetate (PMA). […] The data shown in FIG. 1 represents macrophage survival percent after 12-14 hours of incubation with conjugates. […] In the figure, series 1 represents control macrophages which were not infected. Series 2, 3 and 4 represent the 0.1, 1 and 10 µg/ml dosages. The values shown in these series represented number of cells, as normalized to control, non-infected macrophages.
(§1) Media used for macrophage assay: RPMI with 10% FCS, supplemented with pencillin streptomycin and glutamine. The compounds were prepared in phosphate buffered saline with pH adjusted to 7.6 and were used immediately after preparation.
Infection of macrophage: The macrophages were infected with 5x times with Leishmania donovani - for a density of 1x10^5 monocytes transformed to macrophage, the infection density is 5 x 10^5 L.donovani.
(§2) The experiment was performed according to the following schedule: • Monocyte to macrophage transformation: 0 to 48 hours • Macrophage Infection with Leishmania: 48-84 hours • Treatment with compound: 84 - 96 hours • Plate used for assay: Microscopy compatible glass bottom plate -24 wells.
The macrophages that were alive were counted in five different fields of the wells for different concentration and the average count was used for the assay. Based on the count of the control macrophages, the % was adjusted.

The conditions of data set [4]: fasted mice. On the procedure: CC57BL/6 mice aged approximately 9 weeks were weighed and acclimated to facility conditions. Animals were assigned to 3 treatment groups based on their body weights, creating homogenous groups of 5 mice in each group. After fasting, blood glucose of levels of mice were tested at time 0, at which time the test drug was administered, then subsequently at 30, 60, 90 and 120 minutes post administration, using blood glucose test strips.

The next data set can be described thus: in vivo. Particulars: female, ICR, mouse.
For data set [5] the following is noted: female, ICR, mouse, in vivo.
The subject of data set [6] is non-infected macrophages (THP1 monocytes transformed with PMA). The following applies: 10 µg/ml, live imaging, 8 hours, FIG. 2. On the procedure:
A macrophage killing assay was performed in order to determine potential of conjugates described herein for treatment of macrophage-related diseases. THP1 monocytes were transformed into macrophages for using phorbol myristate acetate (PMA). […] The data shown in FIG. […] In the figure, series 1 represents control macrophages which were not infected. Series 2, 3 and 4 represent the 0.1, 1 and 10 µg/ml dosages. The values shown in these series represented number of cells, as normalized to control, non-infected macrophages.
as §1, §2

Where [7] appears, read: 24 hours following LPS induction.
Setting [8] is: plasma, parameters used for estimating t½.
[9] abbreviates: plasma, single IV, I5 200 mg/kg, dexamethasone sodium phosphate 40 mg/kg.

`C[C@@H]1C[C@H]2[C@@H]3CCC4=C/C(=N/OCCCO[C@H]5O[C@H](CO)[C@@H](O)[C@H](O)[C@@H]5O)C=C[C@]4(C)[C@@]3(F)[C@@H](O)C[C@]2(C)[C@@]1(O)C(=O)CO` [Compound I5, 1-((8S,9R,10S,11S,13S,14S,16R,17R,E)-9-Fluoro-11,17-Dihydroxy-10,13,16-Trimethyl-3-((3-(((2S,3S,4S,5S,6R)-3,4,5–Trihydroxy-6-(Hydroxymethyl)Tetrahydro-2H-Pyran-2-yl)oxy)propoxy)imino)-6,7,8,9,10,11,12,13,14,15,16,17-Dodecahydro-3H-cyclopenta[a]phenanthren-17-yl)-2-Hydroxyethan-1-One]: the “blood-brain barrier penetration, evidenced by CNS cytokine levels” value in data set [1] (LPS model) is reported as “able to penetrate the blood-brain barrier”. For the same molecule, the “Cytokines levels in Bronchoalveolar lavage fluid” value in data set [1] (IL-1 a and MCP1 (4 Hr. post LPS), MCP1 (8 Hr. post LPS)) is “immunomodulatory effect”. The “Cytokines levels in brains” value in data set [1] (IL-2 (4 and 8 Hr. post LPS), IL-10 (8 Hr.), VEGF a (8 and 24 Hr.), vs groups 2 and 3) is reported as “immunomodulatory effect”. Further, in data set [1] (IL-17 and RANTES (4 Hr. post LPS), LIF (8 Hr. post LPS)), the “Cytokines levels in serum” value is listed as “immunomodulatory effect”. Besides, in data set [2] (24 Hr. following LPS induction, vs groups 2 and 3), the “Clinical score - Appearance” value was “best clinical score”. Besides, the “Clinical score - Eye condition” value in data set [2] (setting [7]) is “best clinical score”. In addition, the “Clinical score - Response to stimulus” value in data set [2] (setting [7]) is “best clinical score”. The Total clinical score result in data set [2] (compared to groups 2 and 3) is listed as “best clinical score”. Besides, the “time to killing of activated macrophages” value in data set [3] (10 µg/ml, live imaging, FIG. 2) is no more than 8 h. Also, the activated macrophage survival result in data set [3] was “particularly effective”. This molecule gave a relative systemic exposure (200 mg Compound I5 compared to 40 mg Dexamethasone) of 4.2%. Further, the “elimination curve in plasma” value (mice after IV dosing) is “two-phase elimination curve”. The AUC%Extrap under setting [8] is recorded as 0.403%. For the same molecule, the Lambda z under setting [8] is 0.164 h⁻¹. This molecule returned an AUCINF/Dose (plasma, single IV) of 93.4 h^∗ng/mL/mg/kg. Besides, the “Exprel, relative systemic exposure [AUCinf/dose (Compound I5)/AUCinf/dose (Dexamethasone)] x 100” value (plasma, single IV, I5 200 mg/kg vs dexamethasone 40 mg/kg) is reported as 4.2%. Besides, the CL under setting [9] is 178.33 mL/min/kg. The molecule further came in with a Tlast under setting [9] of 24.0 h. Also, the “blood glucose relative to baseline” value in data set [4] (100 µg per mouse, 30 to 120 minutes post-administration) is “not increased above baseline”; in data set [4] (2500 µg per mouse (25-fold molar equivalent of 65 µg dexamethasone)), “no elevation of blood glucose level”. In addition, the half-life in “in vivo” (T½, plasma, table Parameters used for estimating t½ in plasma) is 4.23 h; in “in vivo” (iv, T½, plasma, single IV, I5 200 mg/kg, dexamethasone sodium phosphate 40 mg/kg, table PK parameters in plasma), 4.23 h; in “in vivo” (iv, terminal elimination half-life in plasma, mice after IV dosing), roughly 4.2 h. For the same molecule, the time to peak (Tmax) in the data set “in vivo” (iv) came to 5 min. Further, the clearance in “in vivo” (iv) is 178 mL/min/kg. The Vd in the data set “in vivo” (iv, Vss, plasma, single IV, I5 200 mg/kg, dexamethasone sodium phosphate 40 mg/kg) is 12.1 L/kg; in “in vivo” (iv, Vz, plasma, single IV, I5 200 mg/kg, dexamethasone sodium phosphate 40 mg/kg), 65.3 L/kg; in “in vivo” (iv, distribution volume, Vss, plasma, IV), 12.1 L/kg. The “Concentration in brain (CSF) (pooled)” value in data set [5] is listed as 29.4 ng/mL. The “pooled CSF levels detected” value in data set [5] (iv) lay in the range of 6.86 to 29.4 ng/mL. Also, in data set [5] (iv, 200 mg/kg), the “CSF levels as fold the LLOQ (5.00 ng/mL)” value is on record as 1.4-5.9 fold. Besides, in data set [6], the “effect on macrophages not activated by infection” value is “remained unchanged”.

In the case of `CC(CC(=O)N/N=C(\CO)[C@@]1(O)[C@H](C)C[C@H]2[C@@H]3CCC4=CC(=O)C=C[C@]4(C)[C@@]3(F)C(O)C[C@@]21C)O[C@H]1OC(CO)[C@@H](O)C(O)C1O` (stereo partly shown) [MD4], the activated macrophage survival entry in data set [3] is given as “particularly effective”.

`C[C@@H]1C[C@H]2[C@@H]3CCC4=CC(=O)C=C[C@]4(C)[C@@]3(F)C(O)C[C@]2(C)[C@@]1(O)C(=O)CO` (stereo partly shown) [dexamethasone, reference compound]: the “increase of blood sugar levels (change from baseline)” value in data set [4] (dexamethasone 65 mg (so in the source), 30 to 120 minutes post administration) was “about 15%”.
